Reference: patent publication US4370459A, “Polymerizing unsaturated monomers with gem-diperoxyester catalyst” (priority 1980, dated 1983)

Key:
[1] = Half-lives of gem-diperoxyesters (10 hour half-life temperature); format: physicochemical; conditions: 0.2M in benzene
Excerpt: HALF-LIFES OF VARIOUS GEM-DIPEROXYESTERS

[2] = Suspension polymerization of vinyl chloride monomer in pop bottles with gem-diperoxyester initiators
Protocol: A series of polymerizations was performed to illustrate the improved efficiencies of the new compounds as initiators of vinyl chloride monomer. 2,2-Bis(2-ethyl hexanoylperoxy)butane (KP-A) is one compound that can be made by the procedures of the above referenced Japanese patents and was included as typical of the prior art.
The data in Table III were obtained in the following manner:
The suspension polymerizations were performed in pop bottles using uninhibited monomer. Duplicate bottles were analyzed at each polymerization time interval. The following table lists some general information about the polymerization procedure used.
After the desired amounts of reactants were added to the pop bottles, they were capped, the contents almost melted, and the bottles placed in a rotating constant temperature bath at the temperatures and for the times shown in Table III. The bottles were frozen before venting-off excess monomer. The polymer was filtered, washed, and dried. All initiator concentrations shown have been corrected for purity.

[3] = Hot block gel tests with polyester resin (curing); conditions: 0.75 % Wt used
Protocol: The unsaturated polyester resins cured by the present process comprises those polyesters described in U.S. Pat. No. 4,129,613, the disclosure thereof being incorporated by reference herein. The following Table IV is typical of the improved results obtained with the present compounds.
HOT BLOCK GEL TESTS WITH POLYESTER RESIN
USING VARIOUS GEM-DIPEROXYESTERS
Resin: USS Chemical MR-941 (Isophthalic)
Block Temp.: 180 ± 1° F. (82° C.)
Peroxide Concentration Corrected for Purity, […]

[4] = SET 1, 7 hrs. at 22° C., 0.20 % Wt. used
[5] = SET 2, 7 hrs. at 40° C., 4.01 × 10^-4 moles initiator/100g VCM
[6] = SET 3, 6 hrs. at 50° C., 1.50 × 10^-4 moles initiator/100g VCM
[7] = SET 3, 6 hrs. at 50° C., 2.50 × 10^-4 moles initiator/100g VCM
[8] = SET 4, 5.5 hrs. at 55° C., 1.25 × 10^-4 moles initiator/100g VCM
[9] = SET 4, 5.5 hrs. at 55° C., 1.75 × 10^-4 moles initiator/100g VCM
[10] = SET 5, 5 hrs. at 60° C., 1.25 × 10^-4 moles initiator/100g VCM
[11] = SET 5, 5 hrs. at 60° C., 1.75 × 10^-4 moles initiator/100g VCM
[12] = SET 2, block temp. 180 ± 1° F. (82° C.)
[13] = SET 1, 7 hrs. at 22° C., 0.10 % Wt. used
[14] = SET 1, block temp. 180 ± 1° F. (82° C.)

For `CCC(CC)C(=O)OOC(CC)(CC)OOC(=O)C(CC)CC` [KP-F, 3,3-Bis(2-Ethyl Butanoylperoxy)Pentane], the “10 Hour Half-Life Temperature” value [1] was 40 °C, the “% Conversion” value [2, 4] was 4.3% and the “% Conversion” value [2, 5] was 88.3%. The “% Conversion” value [2, 6] was 82.5%, the “% Conversion” value [2, 7] was 92.5% and the “% Conversion” value [2, 8] was 74.1%. The “% Conversion” value [2, 9] was 85.9%, the “% Conversion” value [2, 10] was 67.8% and the “% Conversion” value [2, 11] was 81.8%. The “Peak Temp (exotherm)” value [3, 12] was 271 °F.
With `CCCCC(CC)C(=O)OOC(C)(CC(C)(C)O)OOC(=O)C(CC)CCCC` (centres unmarked) [KP-H, 2,2-bis(2-ethylhexanoylperoxy)-4-hydroxy-4-methylpentane] the “% Conversion” value [2, 9] was 63.9% and the “% Conversion” value [2, 11] was 58.1%.
For `CCC(CC)(OOC(=O)C(C)(C)C)OOC(=O)C(C)(C)C` [KP-B, 3,3-bis(pivaloylperoxy)pentane], the “10 Hour Half-Life Temperature” value [1] was 24 °C, the “% Conversion” value [2, 13] was 52.2% and the “% Conversion” value [2, 5] was 90.4%. The “% Conversion” value [2, 7] was 51.8% and the “Peak Temp (exotherm)” value [3, 14] was 221 °F.
For “3,3-bis(neodecanoylperoxy)pentane [KP-C]”, the “10 Hour Half-Life Temperature” value [1] was 23.3 °C, the “% Conversion” value [2, 13] was 27.8% and the “% Conversion” value [2, 5] was 63.1%. The “% Conversion” value [2, 7] was 38.0% and the “Peak Temp (exotherm)” value [3, 14] was 225 °F.
In the case of `CC(C)(C)C1CCC(OC(=O)OOC(=O)OC2CCC(C(C)(C)C)CC2)CC1` (centres unmarked) [DBCPD, Di4-t-butyl cyclohexylperoxydicarbonate, reference compound], the “Peak Temp (exotherm)” value [3, 14] is reported as 244 °F and the “Peak Temp (exotherm)” value [3, 12] is reported as 260 °F.
With `CCCCC(CC)C(=O)OOC(CC)(CC)OOC(=O)C(CC)CCCC` (centres unmarked) [KP-D, 3,3-bis(2-ethylhexanoylperoxy)pentane] the “10 Hour Half-Life Temperature” value [1] was 39.7 °C, the “% Conversion” value [2, 4] was 10.7% and the “% Conversion” value [2, 5] was 75.4%. For the same compound, the “% Conversion” value [2, 6] was 79.1%, the “% Conversion” value [2, 7] was 89.1% and the “% Conversion” value [2, 8] was 69.6%. The “% Conversion” value [2, 9] was 84.2%, the “% Conversion” value [2, 10] was 70.5% and the “% Conversion” value [2, 11] was 83.8%. For the same compound, the “Peak Temp (exotherm)” value [3, 14] was 249 °F and the “Peak Temp (exotherm)” value [3, 12] was 260 °F.
With `CCC(CC)C(=O)OOC(C)(CC(C)(C)O)OOC(=O)C(CC)CC` [KP-I, 2,2-bis(2-ethylbutanoylperoxy)-4-hydroxy-4-methylpentane] the “% Conversion” value [2, 9] was 66.1% and the “% Conversion” value [2, 11] was 65.4%.
For `CCCC(C)C(=O)OOC(CC)(CC)OOC(=O)C(C)CCC` (centres unmarked) [KP-G, 3,3-bis(2-methylpentanoylperoxy)pentane], the “% Conversion” value [2, 4] was 1.6%, the “% Conversion” value [2, 5] was 67.3% and the “% Conversion” value [2, 7] was 88.5%. The “% Conversion” value [2, 8] was 72.8%, the “% Conversion” value [2, 9] was 86.2% and the “% Conversion” value [2, 10] was 72.6%. For the same compound, the “% Conversion” value [2, 11] was 85.9%.
For `CCC(CC)(OOC(=O)C(C)C)OOC(=O)C(C)C` [KP-E, 3,3-bis(2-methylpropionylperoxy)pentane], the “% Conversion” value [2, 4] was 0.5%, the “% Conversion” value [2, 5] was 39.6% and the “% Conversion” value [2, 7] was 74.4%. For the same compound, the “% Conversion” value [2, 9] was 76.1%, the “% Conversion” value [2, 10] was 71.5% and the “% Conversion” value [2, 11] was 86.7%.
In the case of `CCCCC(CC)C(=O)OOC(C)(CC)OOC(=O)C(CC)CCCC` (centres unmarked) [KP-A, 2,2-Bis(2-Ethyl Hexanoylperoxy)Butane, reference compound], the “10 Hour Half-Life Temperature” value [1] is reported as 43.7 °C, the “% Conversion” value [2, 4] is reported as 5.0% and the “% Conversion” value [2, 5] is reported as 45.9%. The “% Conversion” value [2, 7] was 75.85%, the “% Conversion” value [2, 8] was 53.4% and the “% Conversion” value [2, 9] was 72.1%. For the same compound, the “% Conversion” value [2, 10] was 67.8%, the “% Conversion” value [2, 11] was 83.2% and the “Peak Temp (exotherm)” value [3, 12] was 275 °F.
